Peptide text beside a SMILES is read from it. * marks the point of attachment. X1 = Oc1cccc(N*)c1
Biological target: Protease (Human immunodeficiency virus 1, UniProt Q9YQ12)
Assay: Inhibition of HIV1 subtype C protease expressed in Escherichia coli BL21 assessed as hydrolysis of substrate using chromogenic substrate Lys-Ala-Arg-Val-Nle-p-nitro-Phe-Glu-Ala-Nle-NH2 by spectrophotometric analysis

Chain of Protease (Q9YQ12 whole entry): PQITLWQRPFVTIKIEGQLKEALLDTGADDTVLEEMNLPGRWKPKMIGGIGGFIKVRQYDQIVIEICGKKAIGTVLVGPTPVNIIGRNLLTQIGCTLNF

Compound | IC50 [nM]
CC[C@H](C)[C@H](NC(=O)[C@@H](N)CO)C(=O)N[C@@H](C)C(=O)N[C@@H](CCC(=O)O)C(=O)Nc1cccc(O)c1 (H-SIAE-X1) | 10000
CC[C@H](C)[C@H](NC(=O)[C@@H](N)CO)C(=O)N[C@@H](C)C(=O)N[C@@H](CCC(=O)O)C(=O)NC12NC(=O)C3(O)C4C5CC(C6C5C3C61)C42 (mixture of isomers) | 78
CC[C@H](C)[C@H](NC(=O)[C@@H](N)CO)C(=O)N[C@@H](C)C(=O)N[C@@H](CCC(=O)O)C(=O)NC12NC(=O)C3(OC(C)=O)C4C5CC(C6C5C3C61)C42 (mixture of isomers) | > 10000
CC[C@H](C)[C@H](N)C(=O)N[C@@H](C)C(=O)N[C@@H](CCC(=O)O)C(=O)NC12NC(=O)C3(O)C4C5CC(C6C5C3C61)C42 (mixture of isomers) | 500
CC[C@H](C)[C@H](NC(=O)[C@@H](N)CO)C(=O)N[C@H](C(=O)N[C@@H](CCC(=O)O)C(=O)NC12NC(=O)C3(O)C4C5CC(C6C5C3C61)C42)C(C)C (mixture of isomers) | 2000
COC(=O)N[C@H](C(=O)N[C@@H](Cc1ccccc1)[C@@H](O)CN(Cc1ccc(-c2ccccn2)cc1)NC(=O)[C@@H](NC(=O)OC)C(C)(C)C)C(C)(C)C [ATAZANAVIR] | 4

Other lines, results leading:

IC50 [nM] | Compound
500 | CC[C@H](C)[C@H](NC(=O)[C@@H](N)CO)C(=O)N[C@@H](C)C(=O)N[C@]12NC(=O)[C@@]3(O)C4C5CC(C6C5C3C61)C42 (some centres undefined)
10000 | CC[C@H](C)[C@H](NC(=O)[C@@H](N)CO)C(=O)N[C@@H](C)C(=O)N[C@@]12NC(=O)[C@]3(O)C4C5CC(C6C5C3C61)C42 (some centres undefined)
5000 | CC[C@H](C)[C@H](NC(=O)[C@@H](N)CO)C(=O)N[C@@H](C)C(=O)N[C@@H](CCC(N)=O)C(=O)NC12NC(=O)C3(O)C4C5CC(C6C5C3C61)C42 (mixture of isomers)

From ChEMBL document CHEMBL1759903, “Pentacycloundecane-based inhibitors of wild-type C-South African HIV-protease” (Bioorg Med Chem Lett, 2011)
